≈ marks a conversion by molar mass, not a printed value. Where “and” joins values, the source holds several entries; their conditions need not be identical. Equal entries are not always repeated. Where two headings read alike, the source gives them in different places.
How the values were obtained:
DH5α E. coli [1] = format: cell-based, Escherichia coli; conditions: compound alone
Source text: (§1) Among the organisms studied are several strains of the bacterium E. coli.
(§2) Minimal Inhibitory Concentration (MIC) Procedure. […] Streak the E. coli (DH5α or K-12 MG1655) strain on L.B agar plates. […] Prepare initial concentration of all the compounds required. • 5. […] Vortex each test tube for 2-3 seconds. • 9. […] Vortex each test tube for 2-3 seconds. • 11.

HEK-293 cells = test: Toxicity of lariat ethers to HEK-293 cells (MTT assay); format: cell-based
Source text: The error bars represent the standard error. […]

B. subtilis = test: Minimum inhibitory concentration (MIC), B. subtilis; format: cell-based, Bacillus subtilis; conditions: compound alone
Protocol: Among the organisms studied are several strains of the bacterium E. coli. […] Experiments were conducted to determine the MIC values for the synthetic amphiphiles known as lariat ethers according to the procedures described in Antimicrobial M07-A9: Methods for Dilution Antimicrobial Susceptibility Tests for Bacteria that Grow Aerobically; Clinical and Laboratory Standards Institute, 2012; Vol. 32, 67 pp. MIC values so determined for several lariat ethers and for several antibiotics are shown in Table 1.

S. cerevisiae = test: Minimum inhibitory concentration (MIC), S. cerevisiae; format: cell-based, Saccharomyces cerevisiae; conditions: compound alone
[2] = tested on: tetracycline resistant E. coli (tetA efflux pump); test: microbe, parasite or virus in culture; format: cell-based, Escherichia coli; conditions: compound alone; for MIC: tetracycline resistant E. coli
Source text: as §1
Minimal Inhibitory Concentration (MIC) Procedure. […] Streak the E. coli (DH5α or K-12 MG1655) strain on L.B agar plates. […] Prepare initial concentration of all the compounds required. • 5. […] Vortex each test tube for 2-3 seconds. • 9. […] Vortex each test tube for 2-3 seconds. • 11. […]
(§3) The minimal inhibitory concentrations (MIC) of all the compounds against three bacterial strains were first determined using the microtiter technique as described above. […] Antimicrobial property of hydraphiles is attributed to the disruption of ion homeostasis in bacteria.

K-12 E. coli [3] = test: Combination of amphiphile and antibiotic against K-12 E. coli; format: cell-based, Escherichia coli
Protocol: (§6) Steps 1-7, described in the MIC procedure, shown in Example 2, were followed. • 2. While the E. coli grew, the appropriate volume of compound was added to each test tube. • 3. Antibiotics were added at the required volume of solution to obtain the desired concentration in each test tube. […] Each test tube was vortexed for 2-3 seconds. • 5. Steps 10-12 from the MIC procedure, shown in Example 2, were then executed.

[4] = tested on: tetracycline resistant E. coli (tetA efflux pump); format: cell-based, Escherichia coli
Protocol: (§4) However, the bacterial strains used herein are multidrug resistant and the effect of hydraphiles on the inhibition of resistance mechanism (efflux pumps) was not known. The hydraphiles and the controls were tested next to see whether they could recover the activity of antibiotics against efflux pump expressing Gram-positive and Gram-negative bacteria. The MIC of antibiotics were determined in the presence of ½ [MIC] or ¼ [MIC] of each hydraphile or the controls used.

E. coli = test: Minimum inhibitory concentration (MIC), E. coli; format: cell-based, Escherichia coli; conditions: compound alone
Source text: as §1, §2

K-12 E. coli [5] = test: MIC, K-12 E. coli; format: cell-based, Escherichia coli; conditions: compound alone
Source text: as §2

DH5α E. coli [6] = test: Combination of lariat ether and antibiotic against DH5α E. coli; format: cell-based, Escherichia coli;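 further: E. coli grown in test-tube liquid culture at a fixed total volume of 2 mL, with the amphiphile and the antibiotic both added to each tube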
Protocol: The volume of water added was between 12 to 0.5 μL. The volume of water added was not constant but the volume of media was changed so that the total volume was kept constant at 2 mL.
as §6

[7] = tested on: K. pneumoniae (ATCC BAA 2146); test: Recovery of antibiotic activity against K. pneumoniae by hydraphiles; format: cell-based, Klebsiella pneumoniae
Protocol: as §4

S. aureus 1199B = test: MIC, S. aureus 1199B; format: cell-based, Staphylococcus aureus
Source text: (§5) K. pneumoniae (ATCC BAA 2146; another Gram-negative bacterium) that expresses multiple classes of efflux pumps and NDM-1 gene was also used. This K. pneumoniae is a clinically relevant strain that was isolated from a patient. Gram-positive S. aureus 1199B was used that overexpresses the NorA efflux pump. Since ethidium bromide and norfloxacin are the substrates of efflux pumps, S. aureus 1199B was used to evaluate the activity of efflux pumps in the presence of the hydraphiles and other membrane disruptors.
as §3

[8] = tested on: K. pneumoniae (ATCC BAA 2146); test: MIC, K. pneumoniae; format: cell-based, Klebsiella pneumoniae; conditions: for MIC: Klebsiella pneumoniae, BAA2146, read-out: Minimal Inhibitory Concentrations (MIC) K. pneumoniae
Source text: as §5, §3

[9] = Rifampicin, amphiphile used 6 μM
[10] = Tetracycline, amphiphile used 6 μM
[11] = rifampicin, amphiphile used 8 μM, 0.4 vol-% DMSO
[12] = rifampicin, amphiphile used 16 μM, 0.4 vol-% DMSO
[13] = rifampicin, amphiphile used 18 μM, 0.4 vol-% DMSO
[14] = rifampicin, amphiphile used […] μM, 0.4 vol-% DMSO
[15] = tetracycline, amphiphile used 4 μM, 0.4 vol-% DMSO
[16] = tetracycline, amphiphile used 16 μM, 0.4 vol-% DMSO
[17] = tetracycline, amphiphile used 18 μM, 0.4 vol-% DMSO
[18] = tetracycline, amphiphile used […] μM, 0.4 vol-% DMSO
[19] = Tetracycline, amphiphile used 16 μM

Compound: CCCCCCCCCCCN1CCOCCOCCN(CCCCCCCCCCC)CCOCCOCC1 [C11 lariat ether, N,N′-bis(n-undecyl)-4,13-diaza-18-crown-6]
- MIC (DH5α E. coli [1]): 24 µM (≈ 13.7 µg/mL)
- LD50 to HEK-293 (HEK-293 cells): 22 µM
- MIC (μM) B. subtilis (B. subtilis): 9 µM (≈ 5.14 µg/mL)
- MIC (μM) S. cerevisiae (S. cerevisiae): 1.5 µM (≈ 0.856 µg/mL)
- MIC [2]: 24 µM (≈ 13.7 µg/mL)
- Antibiotic Used (μM) in combination (K-12 E. coli [3]; [9]): 10 µM
- Fold Enhancement (K-12 E. coli [3]; [9]): 2 fold
- Antibiotic Used (μM) in combination (K-12 E. coli [3]; [10]): 2.5 µM
- Fold Enhancement (K-12 E. coli [3]; [10]): ~2 fold
- Antibiotic Used (μM) in combination ([4]; amphiphile used 8 μM): 175 µM
- Fold Enhancement ([4]; amphiphile used 8 μM): 5 fold
- Antibiotic Used (μM) in combination ([4]; amphiphile used 16 μM): 87 µM
- Fold Enhancement ([4]; amphiphile used 16 μM): 10 fold
- Antibiotic Used (μM) in combination ([4]; amphiphile used 18 μM): 87 µM
- Fold Enhancement ([4]; amphiphile used 18 μM): 10 fold
- Antibiotic Used (μM) in combination ([4]; amphiphile used […] μM): 87 µM
- Fold Enhancement ([4]; amphiphile used […] μM): 10 fold
- MIC (μM) E. coli (E. coli): 24 µM (≈ 13.7 µg/mL)
- MIC (K-12 E. coli [5]): 24 µM (≈ 13.7 µg/mL)
- Antibiotic Used (μM) in combination (DH5α E. coli [6]; [11]): 15 µM
- Fold Enhancement (DH5α E. coli [6]; [11]): 4 fold
- Antibiotic Used (μM) in combination (DH5α E. coli [6]; [12]): 6 µM
- Fold Enhancement (DH5α E. coli [6]; [12]): 10 fold
- Antibiotic Used (μM) in combination (DH5α E. coli [6]; [13]): 3 µM
- Fold Enhancement (DH5α E. coli [6]; [13]): 20 fold
- Antibiotic Used (μM) in combination (DH5α E. coli [6]; [14]): 6 µM
- Fold Enhancement (DH5α E. coli [6]; [14]): 10 fold
- Antibiotic Used (μM) in combination (DH5α E. coli [6]; [15]): 3 µM
- Fold Enhancement (DH5α E. coli [6]; [15]): 4 fold
- Antibiotic Used (μM) in combination (DH5α E. coli [6]; [16]): 0.25 µM
- Fold Enhancement (DH5α E. coli [6]; [16]): 48 fold
- Antibiotic Used (μM) in combination (DH5α E. coli [6]; [17]): 1.5 µM
- Fold Enhancement (DH5α E. coli [6]; [17]): 8 fold
- Antibiotic Used (μM) in combination (DH5α E. coli [6]; [18]): 1 µM
- Fold Enhancement (DH5α E. coli [6]; [18]): 12 fold

Compound: O=C(O)c1cn(C2CC2)c2cc(N3CCNCC3)c(F)cc2c1=O [Ciprofloxacin]
- recovery of ciprofloxacin activity by hydraphiles [7]: 10 fold
- susceptibility of S. aureus 1199B (S. aureus 1199B): resistant
- MIC [8]: 700 µM (≈ 232 µg/mL)

Compound: c1ccc(CN2CCOCCOCCN(Cc3ccccc3)CCOCCOCC2)cc1 [Dibenzyl diaza crown, N,N′-Dibenzyl-4,13-diaza-18-crown-6, reference compound]
- Fold Enhancement ([4]; amphiphile/control 128 μM): 1-fold
- [Tetracycline] μM in combination ([4]; amphiphile/control 128 μM): 900 µM
- Fold Enhancement ([4]; amphiphile/control 128 μM, listed as Dibenzyl di-aza-crown): did not show any recovery

Compound: CCn1cc(C(=O)O)c(=O)c2cc(F)c(N3CCNCC3)cc21 [norfloxacin]
- susceptibility of S. aureus 1199B (S. aureus 1199B): resistant

Compound: CO[C@H]1/C=C/O[C@@]2(C)Oc3c(C)c(O)c4c(O)c(c(/C=N/N5CCN(C)CC5)c(O)c4c3C2=O)NC(=O)/C(C)=C\C=C\[C@H](C)[C@H](O)[C@@H](C)[C@@H](O)[C@@H](C)[C@H](OC(C)=O)[C@@H]1C [rifampicin, reference compound]
- MIC (DH5α E. coli [1]): 60 µM (≈ 49.4 µg/mL)
- MIC (K-12 E. coli [5]; Escherichia coli): 20 µM (≈ 16.5 µg/mL)

Compound: CN(C)[C@@H]1C(O)=C(C(N)=O)C(=O)[C@@]2(O)C(O)=C3C(=O)c4c(O)cccc4[C@@](C)(O)[C@H]3C[C@@H]12 [tetracycline]
- recovery of tetracycline activity by hydraphiles [7]: 40 fold
- MIC ([2]; Escherichia coli): ~900 µM (≈ 400 µg/mL)
- Minimal Inhibitory Concentrations (MIC) E. coli (Tet^R) ([2]; microtiter, inhibition greater than 80% considered as the MIC): 900 µM and 900 ± 100 µM
- MIC [2]: 900 ± 50 µM and 900 µM
- MIC (K-12 E. coli [5]; Escherichia coli): 6 µM (≈ 2.67 µg/mL)
- MIC [8]: 1000 µM (≈ 444 µg/mL)
- Minimal Inhibitory Concentrations (MIC) K. pneumoniae ([8]; compound alone, inhibition greater than 80% considered as the MIC): 1000 ± 100 µM

Compound: Gramicidin D [reference compound]
- [Tetracycline] μM in combination ([4]; amphiphile/control 20 μM): 900 ± 100 µM

Compound: N,N′-di-n-decyl-4,13-diaza-18-crown-6 [C10 lariat ether]
- MIC (DH5α E. coli [1]): 12 µM
- toxicity to HEK-293 compared among lariat ethers (HEK-293 cells): highest toxicity
- MIC (μM) B. subtilis (B. subtilis): 2.8 µM
- MIC (μM) S. cerevisiae (S. cerevisiae): 2.8 µM
- MIC [2]: 16 µM
- Antibiotic Used (μM) in combination (K-12 E. coli [3]; [9]): 5 µM
- Antibiotic Used (μM) in combination ([4]; amphiphile used 6 μM): 225 µM
- Fold Enhancement ([4]; amphiphile used 6 μM): 4 fold
- Antibiotic Used (μM) in combination ([4]; amphiphile used 9 μM): 56 µM
- Fold Enhancement ([4]; amphiphile used 9 μM): 16 fold
- MIC (μM) E. coli (E. coli): 11 µM
- MIC (K-12 E. coli [5]): 12 µM

Compound: N,N′-di-n-dodecyl-4,13-diaza-18-crown-6 [C12 lariat ether]
- MIC (μM) B. subtilis (B. subtilis): 2.5 µM
- MIC (μM) S. cerevisiae (S. cerevisiae): 2.5 µM
- Antibiotic Used (μM) in combination (K-12 E. coli [3]; [19]): 3 µM
- Fold Enhancement (K-12 E. coli [3]; [19]): 2 fold
- Antibiotic Used (μM) in combination ([4]; amphiphile used 192 μM): 450 µM
- Fold Enhancement ([4]; amphiphile used 192 μM): 2 fold
- MIC (μM) E. coli (E. coli): >300 µM
- MIC (K-12 E. coli [5]): >512 µM

Compound: N,N′-di-n-octyl-4,13-diaza-18-crown-6 [C8 lariat ether]
- MIC (DH5α E. coli [1]): > 240 µM
- MIC (DH5α E. coli [1]; listed as C8 Lariat): 120 µM
- MIC (DH5α E. coli [1]; listed as n-C8): >120 µM
- LD50 to HEK-293 (HEK-293 cells): 33 µM
- MIC (μM) B. subtilis (B. subtilis): 105 µM
- MIC (μM) S. cerevisiae (S. cerevisiae): 25 µM
- MIC [2]: 120 µM
- Antibiotic Used (μM) in combination (K-12 E. coli [3]; Rifampicin, amphiphile used 32 μM): 10 µM
- Antibiotic Used (μM) in combination (K-12 E. coli [3]; Rifampicin, amphiphile used […] μM): 5 µM
- Antibiotic Used (μM) in combination (K-12 E. coli [3]; Tetracycline, amphiphile used […] μM): 2.5 µM
- Antibiotic Used (μM) in combination ([4]; amphiphile used 40 μM): 233 µM
- Fold Enhancement ([4]; amphiphile used 40 μM): 4 fold
- Antibiotic Used (μM) in combination ([4]; amphiphile used 60 μM): 175 µM
- Fold Enhancement ([4]; amphiphile used 60 μM): 5 fold
- Antibiotic Used (μM) in combination ([4]; amphiphile used 80 μM): 87 µM
- Fold Enhancement ([4]; amphiphile used 80 μM): 10 fold
- MIC (μM) E. coli (E. coli): 120 µM
- MIC (K-12 E. coli [5]): 300 µM
- Antibiotic Used (μM) in combination (DH5α E. coli [6]; rifampicin, amphiphile used 40 μM, 0.4 vol-% DMSO): 3 ± 1 µM
- Antibiotic Used (μM) in combination (DH5α E. coli [6]; rifampicin, amphiphile used 60 μM, 0.4 vol-% DMSO): 3 ± 1 µM
- Antibiotic Used (μM) in combination (DH5α E. coli [6]; rifampicin, amphiphile used 80 μM, 0.4 vol-% DMSO): 3 ± 1 µM
- Antibiotic Used (μM) in combination (DH5α E. coli [6]; tetracycline, amphiphile used 20 μM, 0.4 vol-% DMSO): 12 µM
- Antibiotic Used (μM) in combination (DH5α E. coli [6]; tetracycline, amphiphile used 30 μM, ≤0.6 vol-% DMSO): 3 µM
- Antibiotic Used (μM) in combination (DH5α E. coli [6]; tetracycline, amphiphile used 40 μM, 0.4 vol-% DMSO): 2 µM
- Antibiotic Used (μM) in combination (DH5α E. coli [6]; tetracycline, amphiphile used 60 μM, 0.4 vol-% DMSO): 2 µM
- Antibiotic Used (μM) in combination (DH5α E. coli [6]; tetracycline, amphiphile used 80 μM, 0.4 vol-% DMSO): 0.5 µM
- Antibiotic Used (μM) in combination (DH5α E. coli [6]; tetracycline, amphiphile used 100 μM, 0.4 vol-% DMSO): 0.25 µM

Compound: N,N′-di-n-tetradecyl-4,13-diaza-18-crown-6 [C14 lariat ether]
- MIC (μM) B. subtilis (B. subtilis): >300 µM
- MIC (μM) S. cerevisiae (S. cerevisiae): >300 µM
- MIC (μM) E. coli (E. coli): >300 µM
